# pEC50: −log10 of the molar value.
# System: STING pathway
# Experiment: STING reporter assay: luciferase reporter activity in THP1-Dual KO-IFNAR2 cells activated with 2'3'cGAMP
# Assay type: cell-based
# Conditions: Homo sapiens, 2'3'cGAMP 15 μM, 24 h, read-out: hSTING EC50
# Summary of the method: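 Luciferase secreted into the supernatant (QUANTI-Luc Plus read-out) was measured after 24 h at 37 °C. This was in THP1-Dual KO-IFNAR2 cells given test compounds (0.0017-100 μM final) plus Lipofectamine-transfected 2′3′cGAMP at 15 μM final; EC50 was then derived.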
row,SMILES,pEC50
1,"O=C(Nc1c[nH]c2cc(F)c(F)cc12)c1cccc(-c2noc(C3CC3)n2)c1 [Compound 234, 3-(5-cyclopropyl-1,2,4-oxadiazol-3-yl)-N-(5,6-difluoro-1H-indol-3-yl)benzamide]",6.00 to 6.70
2,"C[C@H](c1ccc(C(=O)Nc2c[nH]c3cc(F)c(F)cc23)cc1F)N1CC(F)(F)C1 (single isomer, unassigned) [Compound 245, (R or S)—N-(5,6-difluoro-1H-indol-3-yl)-4-(1-(3,3-difluoroazetidin-1-yl)-1l3-ethyl)-3-fluorobenzamide]",6.00 to 6.70
3,"O=C(Nc1c[nH]c2cc(F)c(F)cc12)c1ccc(OC2CN(CC(F)(F)F)C2)nc1 [Compound 246, N-(5,6-difluoro-1H-indol-3-yl)-6-((1-(2,2,2-trifluoroethyl)azetidin-3-yl)oxy)nicotinamide]",6.00 to 6.70
4,"O=C(Nc1c[nH]c2cc(F)c(F)cc12)c1ccc(OCCN2CCCCC2)cc1 [Compound 129, N-(5,6-difluoro-1H-indol-3-yl)-4-[2-(piperidin-1-yl)ethoxy]benzamide]",5.30 to 6.00
5,"Cc1cc(OC(F)(F)F)cc(C(=O)Nc2c[nH]c3cc(F)c(F)cc23)c1 [Compound 119, N-(5,6-difluoro-1H-indol-3-yl)-3-methyl-5-(trifluoromethoxy)benzamide]",6.00 to 6.70
6,"O=C(Nc1c[nH]c2cc(F)c(F)cc12)c1ccc(Oc2ccc(C(F)(F)F)cn2)cc1 [Compound 133, N-(5,6-difluoro-1H-indol-3-yl)-4-{[5-(trifluoromethyl)pyridin-2-yl]oxy}benzamide]",6.00 to 6.70
7,"N#Cc1cc(C(=O)Nc2c[nH]c3cc(F)c(F)cc23)cnc1N1CCC(F)(F)CC1 [Compound 107, 5-cyano-N-(5,6-difluoro-1H-indol-3-yl)-6-(4,4-difluoropiperidin-1-yl)nicotinamide]",6.00 to 6.70
8,"O=C(Nc1c[nH]c2cc(F)c(F)cc12)c1ccc(OC(F)(F)F)c(Cl)c1 [Compound 114, 3-chloro-N-(5,6-difluoro-1H-indol-3-yl)-4-(trifluoromethoxy)benzamide]",6.00 to 6.70
9,"CC(C)n1cc(-c2ccc3[nH]cc(NC(=O)c4ccc(OCCCC(F)(F)F)cc4)c3c2)cn1 [Compound 180, N-(5-(1-isopropyl-1H-pyrazol-4-yl)-1H-indol-3-yl)-4-(4,4,4-trifluorobutoxy)benzamide]",6.00 to 6.70
10,"O=C(Nc1c[nH]c2cc(F)c(F)cc12)c1ccc(CN2CC(F)(F)C2)nc1 [Compound 273, N-(5,6-difluoro-1H-indol-3-yl)-6-((3,3-difluoroazetidin-1-yl)methyl)nicotinamide]",4.00 to 5.30
11,"O=C(Nc1c[nH]c2cc(F)c(F)cc12)c1cccc(OC2CCCCC2)c1 [Compound 179, 3-(cyclohexyloxy)-N-(5,6-difluoro-1H-indol-3-yl)benzamide]",6.00 to 6.70
12,"COCCO[C@@H]1CCN(c2ccc(C(=O)Nc3c[nH]c4cc(F)c(F)cc34)cc2F)C1 [Compound 185, (R)-N-(5,6-difluoro-1H-indol-3-yl)-3-fluoro-4-(3-(2-methoxyethoxy)pyrrolidin-1-yl)benzamide]",6.00 to 6.70
13,"O=C(Nc1c[nH]c2cc(F)c(F)cc12)c1ccc(OC(F)F)cn1 [Compound 270, N-(5,6-difluoro-1H-indol-3-yl)-5-(difluoromethoxy)pyridine-2-carboxamide]",4.00 to 5.30
14,"O=C(Nc1c[nH]c2cc(F)c(F)cc12)c1ccc(Oc2cccnc2)cc1 [Compound 118, N-(5,6-difluoro-1H-indol-3-yl)-4-(pyridin-3-yloxy)benzamide]",6.00 to 6.70
15,"O=C(Nc1c[nH]c2cc(F)c(F)cc12)c1cnc(N2CCC(C(F)(F)F)C2)c(Cl)c1 (stereo not shown) [Compound 189, 5-chloro-N-(5,6-difluoro-1H-indol-3-yl)-6-(3-(trifluoromethyl)pyrrolidin-1-yl)nicotinamide]",6.00 to 6.70
16,"O=C(Nc1c[nH]c2ccc(Cl)cc12)c1ccc(OC2CCN(CC(F)(F)F)CC2)cc1 [Compound 230, N-(5-chloro-1H-indol-3-yl)-4-((1-(2,2,2-trifluoroethyl)piperidin-4-yl)oxy)benzamide]",6.70 to 7.40
17,"O=C(Nc1c[nH]c2cc(F)c(F)cc12)c1ccnc(NCCCC(F)(F)F)c1 [Compound 203, N-(5,6-difluoro-1H-indol-3-yl)-2-((4,4,4-trifluorobutyl)amino)isonicotinamide]",6.00 to 6.70
18,"O=C(Nc1c[nH]c2cc(F)c(F)cc12)c1cccc(OCCCC(F)(F)F)c1 [Compound 171, N-(5,6-difluoro-1H-indol-3-yl)-3-(4,4,4-trifluorobutoxy)benzamide]",6.00 to 6.70
19,"O=C(Nc1c[nH]c2cc(F)c(F)cc12)c1ccc(C2CC(F)(F)C2)cc1 [Compound 108, N-(5,6-difluoro-1H-indol-3-yl)-4-(3,3-difluorocyclobutyl)benzamide]",6.00 to 6.70
20,"O=C(Nc1c[nH]c2c(F)cncc12)c1ccc(OCCCC(F)(F)F)c(F)c1 [Compound 111, 3-fluoro-N-(7-fluoro-1H-pyrrolo[3,2-c]pyridin-3-yl)-4-(4,4,4-trifluorobutoxy)benzamide]",5.30 to 6.00

row,SMILES,pEC50
1,"O=C(Nc1c[nH]c2cc(F)c(F)cc12)c1ccc(C2CCC(F)(F)CC2)c(Cl)c1 [Compound 166, 3-chloro-N-(5,6-difluoro-1H-indol-3-yl)-4-(4,4-difluorocyclohexyl)benzamide]",6.00 to 6.70
2,"O=C(Nc1c[nH]c2cc(F)c(F)cc12)c1ccc(OC(F)F)cc1 [Compound 116, N-(5,6-difluoro-1H-indol-3-yl)-4-(difluoromethoxy)benzamide]",6.00 to 6.70
3,"O=C(Nc1c[nH]c2cc(F)c(F)cc12)c1ccc(OCC2CC2)c(Cl)c1 [Compound 195, 3-chloro-4-(cyclopropylmethoxy)-N-(5,6-difluoro-1H-indol-3-yl)benzamide]",6.00 to 6.70
4,"O=C(Nc1c[nH]c2cc(F)c(F)cc12)c1ccc(N2CCC(F)(F)CC2)nc1 [Compound 159, N-(5,6-difluoro-1H-indol-3-yl)-6-(4,4-difluoropiperidin-1-yl)nicotinamide]",6.70 to 7.40
5,"O=C(Nc1c[nH]c2ccc(Cl)cc12)c1ccc(CC2CCN(CC(F)(F)F)CC2)cc1 [Compound 229, N-(5-chloro-1H-indol-3-yl)-4-((1-(2,2,2-trifluoroethyl)piperidin-4-yl)methyl)benzamide]",6.70 to 7.40
6,"O=C(Nc1c[nH]c2cc(F)ccc12)c1cnc(N2CCC(F)(F)CC2)c(Cl)c1 [Compound 190, 5-chloro-6-(4,4-difluoropiperidin-1-yl)-N-(6-fluoro-1H-indol-3-yl)nicotinamide]",6.00 to 6.70
7,"O=C(Nc1c[nH]c2cc(F)c(F)cc12)c1ccc(OCC(F)F)cc1 [Compound 174, N-(5,6-difluoro-1H-indol-3-yl)-4-(2,2-difluoroethoxy)benzamide]",6.00 to 6.70
8,"N#Cc1ccc2[nH]cc(NC(=O)c3ccc(OCCCC(F)(F)F)c(F)c3)c2c1 [Compound 145, N-(5-cyano-1H-indol-3-yl)-3-fluoro-4-(4,4,4-trifluorobutoxy)benzamide]",6.00 to 6.70
9,"CCC(O)Cc1ccc(C(=O)Nc2c[nH]c3cc(F)c(F)cc23)cn1 (stereo not shown) [Compound 228, N-(5,6-difluoro-1H-indol-3-yl)-6-(2-hydroxybutyl)nicotinamide]",5.30 to 6.00
10,"O=C(Nc1c[nH]c2cc(F)c(F)cc12)c1cc(F)c(OCC(F)(F)F)c(F)c1 [Compound 115, N-(5,6-difluoro-1H-indol-3-yl)-3,5-difluoro-4-(2,2,2-trifluoroethoxy)benzamide]",6.00 to 6.70
11,"COCc1cccc(-n2cc(-c3ccc4[nH]cc(NC(=O)c5ccc(OCCCC(F)(F)F)cc5)c4c3)cn2)c1 [Compound 200, N-(5-(1-(3-(methoxymethyl)phenyl)-1H-pyrazol-4-yl)-1H-indol-3-yl)-4-(4,4,4-trifluorobutoxy)benzamide]",6.00 to 6.70
12,"O=C(Nc1c[nH]c2cc(F)c(F)cc12)c1cccc(C2(O)CCC(F)(F)CC2)c1 [Compound 251, 3-(4,4-difluoro-1-hydroxycyclohexyl)-N-(5,6-difluoro-1H-indol-3-yl)benzamide]",5.30 to 6.00
13,"O=C(Nc1c[nH]c2cc(F)c(F)cc12)c1ccc(-c2noc(C3CC3)n2)cc1 [Compound 266, 4-(5-cyclopropyl-1,2,4-oxadiazol-3-yl)-N-(5,6-difluoro-1H-indol-3-yl)benzamide]",6.00 to 6.70
14,"O=C(Nc1c[nH]c2cc(F)c(F)cc12)c1cnc(N2CC3(C2)CC(F)(F)C3)c(Cl)c1 [Compound 101, 5-chloro-N-(5,6-difluoro-1H-indol-3-yl)-6-(6,6-difluoro-2-azaspiro[3.3]heptan-2-yl)nicotinamide]",6.00 to 6.70
15,"O=C(Nc1c[nH]c2cc(F)c(F)cc12)c1ccc(OC2COC2)cc1 [Compound 269, N-(5,6-difluoro-1H-indol-3-yl)-4-(oxetan-3-yloxy)benzamide]",5.30 to 6.00
16,"O=C(Nc1c[nH]c2cc(F)c(F)cc12)c1ccc(C2(O)CCC(F)(F)CC2)cc1 [Compound 187, 4-(4,4-difluoro-1-hydroxycyclohexyl)-N-(5,6-difluoro-1H-indol-3-yl)benzamide]",6.00 to 6.70
17,"O=C(Nc1c[nH]c2cc(F)c(F)cc12)c1cnc(C2CC3(CC(OCC(F)(F)F)C3)C2)c(F)c1 (stereo not shown) [Compound 222, N-(5,6-difluoro-1H-indol-3-yl)-5-fluoro-6-(6-(2,2,2-trifluoroethoxy)spiro[3.3]heptan-2-yl)nicotinamide]",6.00 to 6.70
18,"O=C(Nc1c[nH]c2cc(F)c(F)cc12)c1cnc(N2CC(F)(F)C2)c(Cl)c1 [Compound 137, 5-chloro-N-(5,6-difluoro-1H-indol-3-yl)-6-(3,3-difluoroazetidin-1-yl)nicotinamide]",6.00 to 6.70
19,"Cc1cc(C(=O)Nc2c[nH]c3cc(F)c(F)cc23)cc(C)c1C1CCC(F)(F)CC1 [Compound 278, N-(5,6-difluoro-1H-indol-3-yl)-4-(4,4-difluorocyclohexyl)-3,5-dimethylbenzamide]",5.30 to 6.00
20,"O=C(Nc1c[nH]c2cc(F)c(F)cc12)c1ccc(OC2CC(F)(F)C2)c(F)c1 [Compound 149, N-(5,6-difluoro-1H-indol-3-yl)-4-(3,3-difluorocyclobutoxy)-3-fluorobenzamide]",6.00 to 6.70
